Assay results as given in paper PMC5332298 (Nature cell biology, 2017).
Read-outs that look alike come from different tables or passages of the source. Blank lines part the entries; values can stand above or below the molecule they belong to.

Experiments:
LINK-A-PIP3 interaction [1] = assay: RNA-lipid overlay assay on PIP arrays with soluble competitors; assay type: binding; details: 100:1 molar ratio to RNA
LINK-A-PIP3 interaction [2] = assay: RNA-lipid vesicles; assay type: binding; details: 100:1 molar ratio to PIP3
[3] = system: LINK-A-PIP3 interaction in MDA-MB-231 cells; assay: RIP assay using a PIP3 antibody; details: MDA-MB-231 cells treated with PI3K inhibitor
MDA-MB-231 spheroids [4] = assay: 3D spheroid BME cell invasion assay; assay type: cell-based, Human; details: 50 nM MK2206 or 25 nM perifosine, 4 days
AKT-PIP3 binding = AKT-PIP3 binding (Homo sapiens, UniProt P31749); assay: biochemical
MDA-MB-231 spheroids [5] = assay: 3-D spheroid fluorometric proliferation/viability assay; assay type: cell-based, Human; details: for proliferation (growth) of spheroids: 50 nM MK2206 or 25 nM perifosine, 4 days
[6] = system: MS2-LINK-A-PIP3 interaction in MDA-MB-231 cells; assay: MS2-TRAP assay with PIP3 mass ELISA; assay type: cell-based, Human; details: cell permeable competitor 100 µM, 2 hrs
[7] = biological target: AKT (His6-tagged recombinant, ThermoFisher) (UniProt P31749 1-480); assay: Alpha competition assay
AKT (His6-tagged recombinant, ThermoFisher), sequence (P31749 whole entry): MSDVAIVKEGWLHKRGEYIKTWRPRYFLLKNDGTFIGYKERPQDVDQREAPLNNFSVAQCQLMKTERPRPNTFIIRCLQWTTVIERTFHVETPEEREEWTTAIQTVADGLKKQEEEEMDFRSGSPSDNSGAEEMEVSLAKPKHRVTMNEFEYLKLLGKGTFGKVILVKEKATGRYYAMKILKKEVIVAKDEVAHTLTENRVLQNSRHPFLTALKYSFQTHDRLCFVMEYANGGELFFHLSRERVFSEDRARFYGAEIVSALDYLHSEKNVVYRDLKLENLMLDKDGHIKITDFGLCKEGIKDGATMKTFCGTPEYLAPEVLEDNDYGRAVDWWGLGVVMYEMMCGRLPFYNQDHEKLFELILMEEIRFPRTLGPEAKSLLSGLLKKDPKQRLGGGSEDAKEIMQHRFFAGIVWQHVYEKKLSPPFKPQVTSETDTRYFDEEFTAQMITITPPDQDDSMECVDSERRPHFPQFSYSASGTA

AKT-PIP3 binding, sequence (P31749 whole entry): as above

Molecule: O=c1cc(N2CCOCC2)oc2c(-c3ccccc3)cccc12 [LY294002]
LINK-A-PIP3 interaction in vivo (RIP with PIP3 antibody) [3]: abolished

Molecule: O=P(O)(O)OC1[C@@H](OP(=O)(O)O)[C@H](OP(=O)(O)O)C(O)[C@H](OP(=O)(O)O)[C@H]1OP(=O)(O)O (stereo partly drawn) [PI(1,3,4,5,6)P5]
MS2-LINK-A-associated PIP3 (PIP3 mass ELISA) [6]: impaired

Molecule: CAGGGUAGACUCGCUCUG (structured_RNA) [LINK-A nt 1100-1117 WT]
binding result [7]: binds

The next lines start with results.

effect of soluble competitor on LINK-A binding to PIP array (LINK-A-PIP3 interaction [1]): abolished | effect of competitor on recruitment of LINK-A ΔPC to PIP3-containing GUVs (LINK-A-PIP3 interaction [2]): abolished
Molecule: O=P(O)(O)OC1[C@H](O)[C@H](OP(=O)(O)O)C(OP(=O)(O)O)[C@H](OP(=O)(O)O)[C@H]1O (stereo partly drawn) [IP4, D-myo-Inositol 1,3,4,5-tetrakisphosphate]

antagonism of the inhibitory effect by FL LINK-A (AKT-PIP3 binding; in vitro, presence of FL LINK-A): 753 fold
Molecule: NC1(c2ccc(-c3nc4ccn5c(=O)[nH]nc5c4cc3-c3ccccc3)cc2)CCC1 [MK2206]
invasion of spheroids (MDA-MB-231 spheroids [4]; LINK-A PIP3-BM−/− spheroids): efficiently inhibited | invasion of spheroids (MDA-MB-231 spheroids [4]; LINK-A PIP3BM+/+ spheroids): undetectable effect | proliferation (growth) of spheroids (MDA-MB-231 spheroids [5]; LINK-A PIP3-BM−/− spheroids): efficiently inhibited | proliferation (growth) of spheroids (MDA-MB-231 spheroids [5]; LINK-A PIP3BM+/+ spheroids): undetectable effect

antagonism of the inhibitory effect by FL LINK-A (AKT-PIP3 binding): 140 fold | IC50 (AKT-PIP3 binding; IC50 for inhibiting AKT-PIP3 binding): 4.8 µM
Molecule: CCCCCCCCCCCCCCCCCCOP(=O)([O-])OC1CC[N+](C)(C)CC1 [perifosine]
invasion of spheroids (MDA-MB-231 spheroids [4]; LINK-A PIP3-BM−/− spheroids): efficiently inhibited | invasion of spheroids (MDA-MB-231 spheroids [4]; LINK-A PIP3BM+/+ spheroids): undetectable effect | proliferation (growth) of spheroids (MDA-MB-231 spheroids [5]; LINK-A PIP3-BM−/− spheroids): efficiently inhibited | proliferation (growth) of spheroids (MDA-MB-231 spheroids [5]; LINK-A PIP3BM+/+ spheroids): undetectable effect | sensitization of LINK-A PIP3-BM−/− spheroids vs PIP3-BM+/+ (MDA-MB-231 spheroids [5]; spheroid viability IC50): about 20,000 fold

effect of soluble competitor on LINK-A binding to PIP array (LINK-A-PIP3 interaction [1]): abolished
Molecule: Phosphatidylinositol-3,4,5-trisphosphate [PIP3]
